Measurements as given in patent US20010053796A1, “Delta-aminolevulinic acid for prevention and treatment of infection microorganisms and parasite” (priority 2000, published 2001).
Read-outs that look alike come from different tables or passages of the source.

What was measured:
[1] = tested on: Vibrio anguillarum; assay: Treatment effect of infected fry by oral administration in feed; type: in vivo, Bastardhalibut; settings: 50 fish
[2] = tested on: Scutica; assay: Extinction effect for Scutica in vitro; type: cell-based
Description: Scutica used in this experiment was taken from epidermal mucus of infected flatfish and suspended in HBSS. The suspension was kept at room temperature for 30 min and centrifuged at 800 rpm for 10 min. The supernatant was removed. The pellet was suspended in MEM-10 (minimum essential medium, 10% FBS, streptomycine, penicilin) and kept for 30 min, and then centrifuged in the same manner as above. The supernatant was removed and left imagoes was gained and made into imagoes suspension with certain number of imagoes by counting with the blood counting machine. The imagoes suspension was subcultured in vitro and inoculated to prepared FHM cell of certain number (2.5×10^5 cells/mL) and then cultured at 17° C. Before carrying out the experiment, by measuring the extinction effect for Scutica according to the concentration of δ-aminolevulinic acid and reaction time, optimum δ-aminolevulinic acid concentration and treatment time was examined for Scutica extermination. The Scutica culture solution cultured in FHM cell line was centrifuged at 3000 rpm for 5 min. The supernatant was removed and was added to PBS. It was washed 3 times to use for the experiment. 1.0 M δ-aminolevulinic acid solution made from sterilized 3rd distilled water was diluted by 2-fold up to 1000-fold (1.0 mM). Scutica was added to each well of 96-well microplate at an amount of 50 μL. Then, δ-aminolevulinic acid solution diluted by 2 steps were added and cultured for 120 min while the viability of Scutica was monitored. During the culture for 120 min, extinction time was measured in 10 min intervals, at each concentration. Between each inoculation, they were stirred for 5 min and were kept for 5 min. after reaction, 1% trypan blue which is staining solution for organism was added to each wells at an amount of 100 μL and mixed. In cultured Scutica with the diluted solution of δ-aminolevulinic acid, the number of parasites was counted by the blood counting machine, according to time. […] Through the 60 min-treatment, more than 50% of Scutica were extinct. At the actual concentration of 2 mM, about 50% of Scutica was extinct through 1 hour-treatment.

[3] = tested on: Bastardhalibut; assay: Breeding before Scutica artificial infection (mortality during cultivation); settings: oral (100 ppm per feed 1 kg), 1˜3 weeks
Description: 20 flatfish of about 25 g were set into 2 groups and 1 control group and cultivated in circulatory filtering system. In group 1, they were cultivated for 1˜3 weeks, maintaining the concentration of δ-aminolevulinic acid at 0.01˜50 ppm by administering δ-aminolevulinic acid once every 3 days to the cultivating water. In group 2, they were cultivated for 1˜3 weeks by administering δ-aminolevulinic acid solution, which was nebulized at the concentration of 0.1˜100 ppm and for artificial assorted feed (EP, fish body weight 3%: 15 g) 1 kg, and dried. In group 1 and the non-treated group, artificial assorted feed on the market with the same amount of feed of group 2 was used without δ-aminolevulinic acid treatment. […] The water temperature was maintained at 20° C. (±2° C.) throughout the experiment.

NCC(=O)CCC(=O)O [δ-aminolevulinic acid]
Viability ([1]; feed 0.1 ppm from 4th day of infection): 44%
Viability ([1]; feed 1.0 ppm from 4th day of infection): 72%
Viability ([1]; feed 50 ppm from 4th day of infection): 90%
Viability ([1]; feed 100 ppm from 4th day of infection): 88%
Scutica extinct ([2]; 500 mM to 2 mM, treatment of at minimum 2 hours): more than 90%
time to completely extinct Scutica ([2]; 30˜15 mM): 20 min
time to completely extinct Scutica ([2]; 500 to 60 mM): 10 min
Scutica extinct ([2]; 60 min-treatment, concentration not given): more than 50%
Scutica extinct ([2]; actual concentration of 2 mM, 1 hour-treatment): about 50%
time to completely extinct Scutica ([2]; actual concentration of 8 mM): 60 min
viability at 2000 µM ([2]; read-out: Viability (%) of Scutica, 2.0 mM, reaction time 10): 50%
viability at 2000 µM ([2]; read-out: Viability (%) of Scutica, 2.0 mM, reaction time 20): 60%
viability at 2000 µM ([2]; read-out: Viability (%) of Scutica, 2.0 mM, reaction time 30): 40%
viability at 2000 µM ([2]; read-out: Viability (%) of Scutica, 2.0 mM, reaction time 40): 45%
viability at 2000 µM ([2]; read-out: Viability (%) of Scutica, 2.0 mM, reaction time 50): 35%
viability at 2000 µM ([2]; read-out: Viability (%) of Scutica, 2.0 mM, reaction time 60): 55%
viability at 2000 µM ([2]; read-out: Viability (%) of Scutica, 2.0 mM, reaction time 70): 40%
viability at 2000 µM ([2]; read-out: Viability (%) of Scutica, 2.0 mM, reaction time 80): 40%
viability at 2000 µM ([2]; read-out: Viability (%) of Scutica, 2.0 mM, reaction time 90): 35%
viability at 2000 µM ([2]; read-out: Viability (%) of Scutica, 2.0 mM, reaction time 110): 40%
viability at 2000 µM ([2]; read-out: Viability (%) of Scutica, 2.0 mM, reaction time 120): 10%
viability at 4000 µM ([2]; read-out: Viability (%) of Scutica, 4.0 mM, reaction time 10): 50%
viability at 4000 µM ([2]; read-out: Viability (%) of Scutica, 4.0 mM, reaction time 20): 50%
viability at 4000 µM ([2]; read-out: Viability (%) of Scutica, 4.0 mM, reaction time 30): 30%
viability at 4000 µM ([2]; read-out: Viability (%) of Scutica, 4.0 mM, reaction time 40): 30%
viability at 4000 µM ([2]; read-out: Viability (%) of Scutica, 4.0 mM, reaction time 50): 20%
viability at 4000 µM ([2]; read-out: Viability (%) of Scutica, 4.0 mM, reaction time 60): 45%
viability at 4000 µM ([2]; read-out: Viability (%) of Scutica, 4.0 mM, reaction time 70): 30%
viability at 4000 µM ([2]; read-out: Viability (%) of Scutica, 4.0 mM, reaction time 80): 45%
viability at 4000 µM ([2]; read-out: Viability (%) of Scutica, 4.0 mM, reaction time 90): 40%
viability at 4000 µM ([2]; read-out: Viability (%) of Scutica, 4.0 mM, reaction time 110): 10%
viability at 4000 µM ([2]; read-out: Viability (%) of Scutica, 4.0 mM, reaction time 120): 10%
viability at 8000 µM ([2]; read-out: Viability (%) of Scutica, 8.0 mM, reaction time 10): 45%
viability at 8000 µM ([2]; read-out: Viability (%) of Scutica, 8.0 mM, reaction time 20): 50%
viability at 8000 µM ([2]; read-out: Viability (%) of Scutica, 8.0 mM, reaction time 30): 45%
viability at 8000 µM ([2]; read-out: Viability (%) of Scutica, 8.0 mM, reaction time 40): 25%
viability at 8000 µM ([2]; read-out: Viability (%) of Scutica, 8.0 mM, reaction time 50): 40%
viability at 8000 µM ([2]; read-out: Viability (%) of Scutica, 8.0 mM, reaction time 60): 40%
viability at 8000 µM ([2]; read-out: Viability (%) of Scutica, 8.0 mM, reaction time 70): 0%
viability at 8000 µM ([2]; read-out: Viability (%) of Scutica, 8.0 mM, reaction time 80): 0%
viability at 8000 µM ([2]; read-out: Viability (%) of Scutica, 8.0 mM, reaction time 90): 0%
viability at 8000 µM ([2]; read-out: Viability (%) of Scutica, 8.0 mM, reaction time 110): 0%
viability at 8000 µM ([2]; read-out: Viability (%) of Scutica, 8.0 mM, reaction time 120): 0%
viability at 15000 µM ([2]; read-out: Viability (%) of Scutica, 15 mM, reaction time 10): 30%
viability at 15000 µM ([2]; read-out: Viability (%) of Scutica, 15 mM, reaction time 20): 0%
viability at 15000 µM ([2]; read-out: Viability (%) of Scutica, 15 mM, reaction time 30): 0%
viability at 15000 µM ([2]; read-out: Viability (%) of Scutica, 15 mM, reaction time 40): 0%
viability at 15000 µM ([2]; read-out: Viability (%) of Scutica, 15 mM, reaction time 50): 0%
viability at 15000 µM ([2]; read-out: Viability (%) of Scutica, 15 mM, reaction time 60): 0%
viability at 15000 µM ([2]; read-out: Viability (%) of Scutica, 15 mM, reaction time 70): 0%
viability at 15000 µM ([2]; read-out: Viability (%) of Scutica, 15 mM, reaction time 80): 0%
viability at 15000 µM ([2]; read-out: Viability (%) of Scutica, 15 mM, reaction time 90): 0%
viability at 15000 µM ([2]; read-out: Viability (%) of Scutica, 15 mM, reaction time 110): 0%
viability at 15000 µM ([2]; read-out: Viability (%) of Scutica, 15 mM, reaction time 120): 0%
viability at 30000 µM ([2]; read-out: Viability (%) of Scutica, 30 mM, reaction time 10): 20%
viability at 30000 µM ([2]; read-out: Viability (%) of Scutica, 30 mM, reaction time 20): 0%
viability at 30000 µM ([2]; read-out: Viability (%) of Scutica, 30 mM, reaction time 30): 0%
viability at 30000 µM ([2]; read-out: Viability (%) of Scutica, 30 mM, reaction time 40): 0%
viability at 30000 µM ([2]; read-out: Viability (%) of Scutica, 30 mM, reaction time 50): 0%
viability at 30000 µM ([2]; read-out: Viability (%) of Scutica, 30 mM, reaction time 60): 0%
viability at 30000 µM ([2]; read-out: Viability (%) of Scutica, 30 mM, reaction time 70): 0%
viability at 30000 µM ([2]; read-out: Viability (%) of Scutica, 30 mM, reaction time 80): 0%
viability at 30000 µM ([2]; read-out: Viability (%) of Scutica, 30 mM, reaction time 90): 0%
viability at 30000 µM ([2]; read-out: Viability (%) of Scutica, 30 mM, reaction time 110): 0%
viability at 30000 µM ([2]; read-out: Viability (%) of Scutica, 30 mM, reaction time 120): 0%
viability at 60000 µM ([2]; read-out: Viability (%) of Scutica, 60 mM, reaction time 10): 0%
viability at 60000 µM ([2]; read-out: Viability (%) of Scutica, 60 mM, reaction time 20): 0%
viability at 60000 µM ([2]; read-out: Viability (%) of Scutica, 60 mM, reaction time 30): 0%
viability at 60000 µM ([2]; read-out: Viability (%) of Scutica, 60 mM, reaction time 40): 0%
viability at 60000 µM ([2]; read-out: Viability (%) of Scutica, 60 mM, reaction time 50): 0%
viability at 60000 µM ([2]; read-out: Viability (%) of Scutica, 60 mM, reaction time 60): 0%
viability at 60000 µM ([2]; read-out: Viability (%) of Scutica, 60 mM, reaction time 70): 0%
viability at 60000 µM ([2]; read-out: Viability (%) of Scutica, 60 mM, reaction time 80): 0%
viability at 60000 µM ([2]; read-out: Viability (%) of Scutica, 60 mM, reaction time 90): 0%
viability at 60000 µM ([2]; read-out: Viability (%) of Scutica, 60 mM, reaction time 110): 0%
viability at 60000 µM ([2]; read-out: Viability (%) of Scutica, 60 mM, reaction time 120): 0%
viability at 125000 µM ([2]; read-out: Viability (%) of Scutica, 125 mM, reaction time 10): 0%
viability at 125000 µM ([2]; read-out: Viability (%) of Scutica, 125 mM, reaction time 20): 0%
viability at 125000 µM ([2]; read-out: Viability (%) of Scutica, 125 mM, reaction time 30): 0%
viability at 125000 µM ([2]; read-out: Viability (%) of Scutica, 125 mM, reaction time 40): 0%
viability at 125000 µM ([2]; read-out: Viability (%) of Scutica, 125 mM, reaction time 50): 0%
viability at 125000 µM ([2]; read-out: Viability (%) of Scutica, 125 mM, reaction time 60): 0%
viability at 125000 µM ([2]; read-out: Viability (%) of Scutica, 125 mM, reaction time 70): 0%
viability at 125000 µM ([2]; read-out: Viability (%) of Scutica, 125 mM, reaction time 80): 0%
viability at 125000 µM ([2]; read-out: Viability (%) of Scutica, 125 mM, reaction time 90): 0%
viability at 125000 µM ([2]; read-out: Viability (%) of Scutica, 125 mM, reaction time 110): 0%
viability at 125000 µM ([2]; read-out: Viability (%) of Scutica, 125 mM, reaction time 120): 0%
viability at 250000 µM ([2]; read-out: Viability (%) of Scutica, 250 mM, reaction time 10): 0%
viability at 250000 µM ([2]; read-out: Viability (%) of Scutica, 250 mM, reaction time 20): 0%
viability at 250000 µM ([2]; read-out: Viability (%) of Scutica, 250 mM, reaction time 30): 0%
viability at 250000 µM ([2]; read-out: Viability (%) of Scutica, 250 mM, reaction time 40): 0%
viability at 250000 µM ([2]; read-out: Viability (%) of Scutica, 250 mM, reaction time 50): 0%
viability at 250000 µM ([2]; read-out: Viability (%) of Scutica, 250 mM, reaction time 60): 0%
viability at 250000 µM ([2]; read-out: Viability (%) of Scutica, 250 mM, reaction time 70): 0%
viability at 250000 µM ([2]; read-out: Viability (%) of Scutica, 250 mM, reaction time 80): 0%
viability at 250000 µM ([2]; read-out: Viability (%) of Scutica, 250 mM, reaction time 90): 0%
viability at 250000 µM ([2]; read-out: Viability (%) of Scutica, 250 mM, reaction time 110): 0%
viability at 250000 µM ([2]; read-out: Viability (%) of Scutica, 250 mM, reaction time 120): 0%
viability at 500000 µM ([2]; read-out: Viability (%) of Scutica, 500 mM, reaction time 10): 0%
viability at 500000 µM ([2]; read-out: Viability (%) of Scutica, 500 mM, reaction time 20): 0%
viability at 500000 µM ([2]; read-out: Viability (%) of Scutica, 500 mM, reaction time 30): 0%
viability at 500000 µM ([2]; read-out: Viability (%) of Scutica, 500 mM, reaction time 40): 0%
viability at 500000 µM ([2]; read-out: Viability (%) of Scutica, 500 mM, reaction time 50): 0%
viability at 500000 µM ([2]; read-out: Viability (%) of Scutica, 500 mM, reaction time 60): 0%
viability at 500000 µM ([2]; read-out: Viability (%) of Scutica, 500 mM, reaction time 70): 0%
viability at 500000 µM ([2]; read-out: Viability (%) of Scutica, 500 mM, reaction time 80): 0%
viability at 500000 µM ([2]; read-out: Viability (%) of Scutica, 500 mM, reaction time 90): 0%
viability at 500000 µM ([2]; read-out: Viability (%) of Scutica, 500 mM, reaction time 110): 0%
viability at 500000 µM ([2]; read-out: Viability (%) of Scutica, 500 mM, reaction time 120): 0%
Viability [3]: 100%
Mortality during Cultivation ([3]; dead of 20 fish): 0
